# Experiments:
# [1] = Plasma protein binding in dog assessed as bound fraction; type: ADME, cell-free, Canis lupus familiaris; settings: read-out: PPB (converted)
# [2] = test system: Mycobacterium tuberculosis; test: In vivo antimycobacterial activity against Mycobacterium tuberculosis Erdman infected mouse acute tuberculosis infection model assessed as reduction lung bacterial loads by measuring CFU at 10 to 100 mg/kg for 3 weeks at 5 days/week; type: functional, organism-based; settings: dose 10-100 mg/kg, DDE = dose-dependent effect
# [3] = Drug distribution in Sprague-Dawley rat lung at 10 mg/kg, po administered as C14-lableled compound and assessed as radioactivity; type: ADME, organism-based; settings: in vivo
# [4] = target: Sodium channel protein type 5 subunit alpha (Homo sapiens, UniProt Q14524); test: Inhibition of NaV 1.5 (unknown origin)
# [5] = test system: Mycobacterium tuberculosis; test: In vivo antimycobacterial activity against Mycobacterium tuberculosis Erdman infected mouse acute tuberculosis infection model assessed as reduction in log10 CFU at 10 mg/kg for 3 weeks at 5 days/week relative to control; type: functional
# [6] = Metabolic stability in rat liver microsomes assessed as half life; type: ADME, Microsome
# Cytochrome P450 3A4 = Cytochrome P450 3A4 (Homo sapiens, UniProt P08684); test: Inhibition of CYP3A4 (unknown origin); type: ADME
# [7] = target: Voltage-gated inwardly rectifying potassium channel KCNH2 (Homo sapiens, UniProt Q12809); test: Inhibition of human ERG; type: toxicity
# [8] = Cmax in CD-1 mouse at 5 mg/kg, po; type: ADME, organism-based; set-up: dose 5 mg/kg, route po; settings: in vivo
# [9] = test system: Mycobacterium tuberculosis; test: Antimycobacterial activity against clinical isolate drug susceptible Mycobacterium tuberculosis H37Rv assessed as bacterial growth inhibition; type: functional
# [10] = test system: Mycobacterium tuberculosis; test: In vivo antimycobacterial activity against Mycobacterium tuberculosis Erdman infected mouse chronic tuberculosis infection model assessed as reduction log10 CFU at 10 to 100 mg/kg for 4 weeks at 5 days/week administered after 31 days post infection relative to control; type: functional; settings: dose 10-100 mg/kg
# [11] = Metabolic stability in cynomolgus monkey liver microsomes assessed as half life; type: ADME, Macaca fascicularis, Microsome
# [12] = Aqueous solubility of compound at pH 2.0; type: physicochemical; settings: buffer
# [13] = Oral bioavailability in Beagle dog at 2 mg/kg; type: ADME, organism-based, Canis lupus familiaris; settings: in vivo
# Cytochrome P450 1A2 = target: T1, Cytochrome P450 1A2 (Homo sapiens, UniProt P05177); test: Inhibition of CYP1A2 (unknown origin); type: ADME
# T1 sequence (P05177 whole entry): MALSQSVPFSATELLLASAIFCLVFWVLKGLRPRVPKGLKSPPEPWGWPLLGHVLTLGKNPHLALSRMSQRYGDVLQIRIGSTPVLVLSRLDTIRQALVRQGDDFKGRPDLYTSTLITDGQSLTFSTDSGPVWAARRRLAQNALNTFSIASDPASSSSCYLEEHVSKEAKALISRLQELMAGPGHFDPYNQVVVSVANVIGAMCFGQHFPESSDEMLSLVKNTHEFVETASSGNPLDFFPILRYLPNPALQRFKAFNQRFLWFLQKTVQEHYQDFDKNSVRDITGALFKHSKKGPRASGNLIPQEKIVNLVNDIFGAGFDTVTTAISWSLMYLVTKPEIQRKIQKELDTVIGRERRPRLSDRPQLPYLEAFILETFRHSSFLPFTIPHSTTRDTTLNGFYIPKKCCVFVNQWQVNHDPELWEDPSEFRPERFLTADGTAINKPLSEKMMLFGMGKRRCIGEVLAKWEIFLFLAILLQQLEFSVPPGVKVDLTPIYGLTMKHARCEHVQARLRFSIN
# [14] = Drug distribution in Sprague-Dawley rat intestinal wall at 10 mg/kg, po administered as C14-lableled compound and assessed as radioactivity; type: ADME, organism-based, Intestine; settings: in vivo
# [15] = Half life in Sprague-Dawley rat at 1 mg/kg, iv; type: ADME, organism-based; settings: in vivo
# Cytochrome P450 2C8 = target: T2, Cytochrome P450 2C8 (Homo sapiens, UniProt P10632); test: Inhibition of CYP2C8 (unknown origin); type: ADME
# T2 sequence (P10632 whole entry): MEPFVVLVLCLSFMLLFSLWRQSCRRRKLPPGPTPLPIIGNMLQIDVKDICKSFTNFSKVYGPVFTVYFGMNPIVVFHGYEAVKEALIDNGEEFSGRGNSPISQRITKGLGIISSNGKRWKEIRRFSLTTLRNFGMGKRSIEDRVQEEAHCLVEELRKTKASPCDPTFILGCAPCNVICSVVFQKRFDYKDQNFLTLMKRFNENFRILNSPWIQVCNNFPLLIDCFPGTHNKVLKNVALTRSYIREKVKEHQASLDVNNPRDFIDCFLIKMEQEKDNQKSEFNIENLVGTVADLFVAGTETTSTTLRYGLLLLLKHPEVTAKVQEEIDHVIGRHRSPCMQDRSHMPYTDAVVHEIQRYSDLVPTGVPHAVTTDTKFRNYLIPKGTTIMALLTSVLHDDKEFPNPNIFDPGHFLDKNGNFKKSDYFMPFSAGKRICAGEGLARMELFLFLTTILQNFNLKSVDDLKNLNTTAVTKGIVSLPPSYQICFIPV
# [16] = Half life in Beagle dog at 0.5 mg/kg, iv; type: ADME, organism-based, Canis lupus familiaris; settings: in vivo
# [17] = AUC (0-last) in Beagle dog at 2 mg/kg, po; type: ADME, organism-based, Canis lupus familiaris; settings: in vivo
# [18] = Plasma protein binding in mouse assessed as bound fraction; type: ADME, cell-free; settings: read-out: PPB (converted)
# [19] = Plasma protein binding in human assessed as bound fraction; type: ADME, cell-free; settings: read-out: PPB (converted)
# [20] = target: Voltage-dependent L-type calcium channel subunit alpha-1C (Homo sapiens, UniProt Q13936); test: Inhibition of human Cav1.2
# [21] = Volume of distribution in Sprague-Dawley rat at 1 mg/kg, iv; type: ADME, organism-based; settings: in vivo
# [22] = Clearance in Beagle dog at 0.5 mg/kg, iv; type: ADME, organism-based, Canis lupus familiaris; settings: in vivo
# [23] = Plasma protein binding in rat assessed as bound fraction; type: ADME, cell-free; settings: read-out: PPB (converted)
# [24] = Metabolic stability in dog liver microsomes assessed as half life; type: ADME, Canis lupus familiaris, Microsome
# Cytochrome P450 2B6 = target: T3, Cytochrome P450 2B6 (Homo sapiens, UniProt P20813); test: Inhibition of CYP2B6 (unknown origin); type: ADME
# T3 sequence (P20813 whole entry): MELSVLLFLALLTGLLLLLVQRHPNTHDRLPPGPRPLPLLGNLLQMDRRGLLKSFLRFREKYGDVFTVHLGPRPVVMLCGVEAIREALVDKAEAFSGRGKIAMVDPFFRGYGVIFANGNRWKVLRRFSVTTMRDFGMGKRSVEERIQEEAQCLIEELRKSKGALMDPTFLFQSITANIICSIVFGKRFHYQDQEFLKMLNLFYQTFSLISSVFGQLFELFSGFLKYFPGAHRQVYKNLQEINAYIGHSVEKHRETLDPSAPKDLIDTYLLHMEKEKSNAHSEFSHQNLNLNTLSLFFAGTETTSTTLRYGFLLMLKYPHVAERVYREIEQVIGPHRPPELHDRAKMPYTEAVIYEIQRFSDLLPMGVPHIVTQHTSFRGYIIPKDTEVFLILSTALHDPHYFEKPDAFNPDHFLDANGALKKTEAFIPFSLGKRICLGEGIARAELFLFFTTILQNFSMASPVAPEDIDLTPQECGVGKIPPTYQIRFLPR
# [25] = Clearance in Sprague-Dawley rat at 1 mg/kg, iv; type: ADME, organism-based; settings: in vivo
# [26] = Mutagenicity in Salmonella typhimurium by Ames test; type: toxicity; settings: salmonella enterica subsp. enterica serovar typhimurium; route au
# [27] = AUC (0-last) in CD-1 mouse at 5 mg/kg, po; type: ADME, organism-based; set-up: dose 5 mg/kg, route po; settings: mouse, in vivo
# Sequence of Voltage-dependent L-type calcium channel subunit alpha-1C (Q13936 whole entry): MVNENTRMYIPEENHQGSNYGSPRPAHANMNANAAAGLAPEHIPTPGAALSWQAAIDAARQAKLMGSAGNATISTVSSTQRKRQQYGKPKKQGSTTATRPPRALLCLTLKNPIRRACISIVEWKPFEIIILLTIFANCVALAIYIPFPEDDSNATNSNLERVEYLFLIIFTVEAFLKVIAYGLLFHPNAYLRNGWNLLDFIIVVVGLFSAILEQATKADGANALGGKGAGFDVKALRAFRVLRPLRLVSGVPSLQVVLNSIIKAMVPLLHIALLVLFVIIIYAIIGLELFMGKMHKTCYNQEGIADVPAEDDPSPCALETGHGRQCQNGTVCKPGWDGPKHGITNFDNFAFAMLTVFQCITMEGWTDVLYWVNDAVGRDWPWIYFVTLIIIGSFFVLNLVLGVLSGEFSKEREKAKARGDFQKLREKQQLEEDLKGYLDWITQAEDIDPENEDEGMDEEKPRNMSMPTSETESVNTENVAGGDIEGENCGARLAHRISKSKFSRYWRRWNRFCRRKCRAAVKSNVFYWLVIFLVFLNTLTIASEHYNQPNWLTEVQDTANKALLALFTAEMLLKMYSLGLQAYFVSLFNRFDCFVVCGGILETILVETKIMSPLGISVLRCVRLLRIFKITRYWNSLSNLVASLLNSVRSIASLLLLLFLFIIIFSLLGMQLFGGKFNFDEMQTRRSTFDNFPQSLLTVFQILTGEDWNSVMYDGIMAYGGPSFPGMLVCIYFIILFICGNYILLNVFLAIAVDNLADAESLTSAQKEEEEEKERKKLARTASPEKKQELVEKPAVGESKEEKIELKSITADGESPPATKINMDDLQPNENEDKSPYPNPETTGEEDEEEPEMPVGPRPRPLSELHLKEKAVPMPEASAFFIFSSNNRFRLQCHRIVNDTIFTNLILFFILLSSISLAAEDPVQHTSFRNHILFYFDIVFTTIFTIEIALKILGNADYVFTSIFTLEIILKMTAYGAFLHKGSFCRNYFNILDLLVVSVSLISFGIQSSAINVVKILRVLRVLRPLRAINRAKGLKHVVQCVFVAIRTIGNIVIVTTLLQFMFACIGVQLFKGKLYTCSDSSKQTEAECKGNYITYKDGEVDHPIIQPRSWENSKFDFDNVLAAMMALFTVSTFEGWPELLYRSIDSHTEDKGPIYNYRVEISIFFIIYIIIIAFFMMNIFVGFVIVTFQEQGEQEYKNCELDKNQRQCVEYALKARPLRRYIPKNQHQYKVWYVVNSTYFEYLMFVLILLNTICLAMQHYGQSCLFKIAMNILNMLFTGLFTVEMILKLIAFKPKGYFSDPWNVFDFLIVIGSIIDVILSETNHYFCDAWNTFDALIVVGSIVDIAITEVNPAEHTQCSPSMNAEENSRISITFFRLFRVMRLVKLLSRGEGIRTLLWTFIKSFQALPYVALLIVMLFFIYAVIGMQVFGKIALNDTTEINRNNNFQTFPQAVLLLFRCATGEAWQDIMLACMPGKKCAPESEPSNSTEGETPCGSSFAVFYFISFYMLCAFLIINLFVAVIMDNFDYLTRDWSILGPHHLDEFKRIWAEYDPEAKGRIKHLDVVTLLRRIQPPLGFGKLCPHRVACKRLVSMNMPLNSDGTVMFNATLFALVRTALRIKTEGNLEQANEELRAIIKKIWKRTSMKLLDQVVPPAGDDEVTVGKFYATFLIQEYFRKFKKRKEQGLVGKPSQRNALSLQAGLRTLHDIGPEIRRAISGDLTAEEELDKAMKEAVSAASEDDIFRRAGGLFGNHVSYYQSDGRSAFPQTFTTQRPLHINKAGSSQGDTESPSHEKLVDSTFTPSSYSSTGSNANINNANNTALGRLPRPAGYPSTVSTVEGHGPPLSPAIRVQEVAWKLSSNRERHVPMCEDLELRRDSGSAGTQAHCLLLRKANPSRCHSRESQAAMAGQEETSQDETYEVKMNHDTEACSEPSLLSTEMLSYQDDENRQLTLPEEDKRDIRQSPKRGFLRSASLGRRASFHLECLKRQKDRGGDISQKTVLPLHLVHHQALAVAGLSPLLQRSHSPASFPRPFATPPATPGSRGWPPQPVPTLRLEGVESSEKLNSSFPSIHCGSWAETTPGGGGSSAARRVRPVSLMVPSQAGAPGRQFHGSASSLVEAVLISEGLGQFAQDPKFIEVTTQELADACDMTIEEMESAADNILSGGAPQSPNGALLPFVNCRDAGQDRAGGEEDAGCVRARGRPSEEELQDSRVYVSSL
# Sequence of Sodium channel protein type 5 subunit alpha (Q14524 whole entry): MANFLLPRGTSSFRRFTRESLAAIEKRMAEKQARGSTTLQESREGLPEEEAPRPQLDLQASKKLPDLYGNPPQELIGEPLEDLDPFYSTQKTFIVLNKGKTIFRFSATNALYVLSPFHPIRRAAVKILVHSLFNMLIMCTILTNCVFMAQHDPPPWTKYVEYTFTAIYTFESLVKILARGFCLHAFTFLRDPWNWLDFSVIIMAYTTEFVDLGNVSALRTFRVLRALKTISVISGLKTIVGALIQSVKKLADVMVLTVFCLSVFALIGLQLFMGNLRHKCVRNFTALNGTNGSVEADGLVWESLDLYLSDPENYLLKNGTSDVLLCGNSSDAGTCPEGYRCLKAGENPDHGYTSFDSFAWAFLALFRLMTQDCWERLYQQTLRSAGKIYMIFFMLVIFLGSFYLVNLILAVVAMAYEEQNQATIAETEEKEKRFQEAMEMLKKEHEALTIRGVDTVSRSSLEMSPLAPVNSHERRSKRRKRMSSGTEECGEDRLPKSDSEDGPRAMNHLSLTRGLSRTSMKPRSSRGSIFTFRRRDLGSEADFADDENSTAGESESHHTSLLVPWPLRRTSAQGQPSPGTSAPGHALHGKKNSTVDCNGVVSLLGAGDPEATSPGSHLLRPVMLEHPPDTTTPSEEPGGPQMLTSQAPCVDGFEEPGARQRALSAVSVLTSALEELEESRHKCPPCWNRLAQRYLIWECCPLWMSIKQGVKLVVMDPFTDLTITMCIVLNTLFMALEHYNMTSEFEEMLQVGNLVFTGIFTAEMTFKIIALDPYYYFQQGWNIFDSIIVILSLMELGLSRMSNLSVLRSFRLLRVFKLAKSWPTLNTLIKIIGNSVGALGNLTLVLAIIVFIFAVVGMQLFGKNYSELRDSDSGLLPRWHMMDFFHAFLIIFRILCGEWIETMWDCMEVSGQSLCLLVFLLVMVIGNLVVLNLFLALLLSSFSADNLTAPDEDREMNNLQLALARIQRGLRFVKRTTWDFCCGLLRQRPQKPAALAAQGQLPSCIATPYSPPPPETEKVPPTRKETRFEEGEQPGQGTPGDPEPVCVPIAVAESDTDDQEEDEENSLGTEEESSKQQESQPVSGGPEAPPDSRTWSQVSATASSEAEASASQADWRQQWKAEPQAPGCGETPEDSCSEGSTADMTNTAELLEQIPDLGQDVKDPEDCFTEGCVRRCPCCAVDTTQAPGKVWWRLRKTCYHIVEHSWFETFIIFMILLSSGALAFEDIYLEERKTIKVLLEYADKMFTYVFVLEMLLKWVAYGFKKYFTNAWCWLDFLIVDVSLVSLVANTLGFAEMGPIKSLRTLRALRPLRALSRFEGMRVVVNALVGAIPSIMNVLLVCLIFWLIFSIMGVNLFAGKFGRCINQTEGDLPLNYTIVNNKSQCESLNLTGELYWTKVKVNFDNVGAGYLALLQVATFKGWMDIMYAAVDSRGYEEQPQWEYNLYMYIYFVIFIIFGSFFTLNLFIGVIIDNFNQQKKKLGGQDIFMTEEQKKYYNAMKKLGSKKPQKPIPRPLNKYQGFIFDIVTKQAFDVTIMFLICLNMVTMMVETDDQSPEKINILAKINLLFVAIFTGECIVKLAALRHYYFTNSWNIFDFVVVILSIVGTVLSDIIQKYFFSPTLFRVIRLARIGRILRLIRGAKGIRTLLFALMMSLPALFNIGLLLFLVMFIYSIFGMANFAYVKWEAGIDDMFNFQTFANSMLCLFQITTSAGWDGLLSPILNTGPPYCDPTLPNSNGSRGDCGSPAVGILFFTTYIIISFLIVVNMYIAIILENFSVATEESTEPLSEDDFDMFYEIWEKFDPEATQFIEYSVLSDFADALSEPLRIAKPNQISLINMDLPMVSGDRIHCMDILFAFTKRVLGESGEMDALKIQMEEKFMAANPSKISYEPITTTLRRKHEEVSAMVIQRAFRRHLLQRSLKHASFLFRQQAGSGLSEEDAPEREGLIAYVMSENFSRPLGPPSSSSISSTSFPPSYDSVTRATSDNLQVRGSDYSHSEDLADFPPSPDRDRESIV
# Sequence of Cytochrome P450 3A4 (P08684 whole entry): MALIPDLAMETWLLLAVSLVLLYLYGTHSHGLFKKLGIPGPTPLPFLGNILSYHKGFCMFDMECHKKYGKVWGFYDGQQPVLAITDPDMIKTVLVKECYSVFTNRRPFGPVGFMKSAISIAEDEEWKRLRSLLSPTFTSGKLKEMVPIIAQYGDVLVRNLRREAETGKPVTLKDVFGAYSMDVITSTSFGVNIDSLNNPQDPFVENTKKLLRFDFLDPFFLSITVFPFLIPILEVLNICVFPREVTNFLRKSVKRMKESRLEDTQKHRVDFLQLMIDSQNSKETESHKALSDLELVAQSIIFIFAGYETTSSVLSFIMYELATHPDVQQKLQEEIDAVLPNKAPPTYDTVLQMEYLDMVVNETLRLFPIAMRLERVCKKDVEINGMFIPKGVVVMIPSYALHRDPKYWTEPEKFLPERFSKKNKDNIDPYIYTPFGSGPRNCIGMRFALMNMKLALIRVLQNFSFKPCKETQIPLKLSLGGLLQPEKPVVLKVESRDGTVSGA
compound,measurement,setting,value
C[C@]1(CN2Cc3nc(-c4ccc(F)cc4)sc3C2)CN=C(N)O1,fraction unbound,[1],0.036
same,Activity,[2],Dde
same,Drug uptake,[3],Active
same,IC50,[4],> 13.3 µM
same,Activity,[5],4 log10CFU
same,half-life,[6],1.13 h
same,IC50,Cytochrome P450 3A4,> 100 µM
same,IC50,[7],> 13.3 µM
same,Cmax,[8],753 ng/mL
same,MIC50,[9],0.012 µg/mL
same,MIC90,[9],0.03 µg/mL
same,Activity,[10],1 log10CFU
same,half-life,[11],1.25 h
same,solubility,[12],32.2 µM
same,bioavailability,[13],26.4%
same,IC50,Cytochrome P450 1A2,> 100 µM
same,Drug uptake,[14],Active
same,half-life,[15],2.79 h
same,IC50,Cytochrome P450 2C8,> 100 µM
same,half-life,[16],6.03 h
same,AUClast,[17],1910 ng·h
same,fraction unbound,[18],0.018
same,fraction unbound,[19],0.018
same,IC50,[20],> 13.3 µM
same,Vd,[21],5.56 L/kg
same,clearance,[22],12 mL/min/kg
same,fraction unbound,[23],0.055
same,half-life,[24],2.52 h
same,IC50,Cytochrome P450 2B6,> 100 µM
same,clearance,[25],24.6 mL/min/kg
same,Activity,[26],Non-Toxic
same,AUClast,[27],7247 ng·h/mL
